In article PMC11292009, “Mapping protein binding sites by photoreactive fragment pharmacophores” (Communications Chemistry, 2024):

How the values were obtained:
Assay type in all cases: binding
BRD4-BD1 = system: T1, BRD4-BD1; assay: Intact MS photoaffinity labeling screen, BRD4-BD1 (302 nm, LCMS-TOF); settings: for MS labeling percentage, BRD4: BRD4-BD1, 302 nm 10 min; for BRD4-BD1 (experimental hit status): hit flag 1/0, sheet PhP, photoaffinity labeling screen
T1 construct: screened the PhP library against the first bromodomain of BRD4 (BRD4-BD1); purchased GSK/GenScript
Protocol: (§1) Using a plate-based format with one fragment per well, each fragment was incubated with the target proteins for 15 min to allow for the formation of non-covalent interactions. […] Finally, the results were directly analyzed from the plate using intact protein mass spectrometry by observing the mass additions that correspond to successful labeling (Fig. 2c, for labeling % values see Supplementary data). The library was first characterized against three benchmark proteins like carbonic anhydrase (CA), lysozyme (Lyo), and myoglobin (Myo).
(§2) The PhP library was screened against BRD4-BD1 and KRas^G12D as follows. […] The probe plate was placed on ice. 15 μL of protein stock solution (1 μM BRD4-BD1 (GSK/GenScript) or KRas^G12D (GSK/GenScript) in PBS buffer) was dispensed into wells containing fragments. The plate was left on ice for 15 min for incubation, then irradiated at 302 nm for 10 min, and centrifuged (1000 rpm, 1 min) to remove any bubbles. […] The deconvoluted spectra were analyzed using R Studio software.

myoglobin (Myo) = assay: Intact protein MS photoaffinity labeling screen, myoglobin; settings: intact protein MS after 10 min irradiation
Protocol: as §1

lysozyme (Lyo) = assay: Intact protein MS photoaffinity labeling screen, lysozyme; settings: intact protein MS after 10 min irradiation
Protocol: as §1

KRas^G12D = system: T2, KRas^G12D; assay: Intact MS photoaffinity labeling screen, KRas G12D (302 nm, LCMS-TOF); settings: for MS labeling percentage, KRas: KRas G12D, 302 nm 10 min; for KRAS-G12D (experimental hit status): hit flag 1/0, sheet PhP, photoaffinity labeling screen
T2 construct: purchased GSK/GenScript
Protocol: as §1, §2

[1] = system: carbonic anhydrase II (CA); assay: Intact protein MS photoaffinity labeling screen, carbonic anhydrase; settings: intact protein MS after 10 min irradiation
Protocol: as §1

STAT5B-NTD [2] = system: T3, STAT5B-NTD; assay: Intact MS labeling screen, STAT5B-NTD conjugated with photocatalyst Ir-G2-PEG3-COOH (450 nm); settings: 450 nm 10 min;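 note: 0.14 µL of 100 mM DMSO fragment stock added to the conjugate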
T3 construct: His-SUMO (N, cleaved yes); made in house; host or cells: E. coli BL21 RILP
Protocol: For the photocatalysis experiments, 1.4 µL photocatalyst (in 1.4 mM DMSO solution, 10 eq) was pre-incubated with 1.5 µL coupling reagent (0.75 µL, 5.6 mM EDC (20 eq)+0.75 µL 4.2 mM NHS and 1.5 µL 2.1 mM (15 eq) BOP for 30 min in dark. 30 µL STAT5B-NTD (in 7 µM concentration) was added and incubated further at room temperature overnight or at 37 °C for 1 h in dark. After addition of 0.14 µL PhP (in 100 mM DMSO) the solution was further incubated in dark for 1 h. Irradiation was carried out using 450 nm LED lamp (7.6Vx0A) for 10 min at 4 °C.
(§3) During the analysis, the column temperature was maintained at a constant 60 °C, and a sample volume of 3 µL was injected for each analysis. Data acquisition was conducted in positive ion mode within the m/z 100–2000 (mass-to-charge ratio) range. For the full protocol and spectra of the hits, see Supplementary Note 2.

STAT5B-NTD [3] = system: T3, STAT5B-NTD; assay: Intact MS photoaffinity labeling screen, STAT5B-NTD (365 nm, UHPLC-MS); settings: for MS labeling percentage, STAT5B: STAT5B-NTD, 365 nm 10 min, no photocatalyst; for STAT5B-NTD (experimental hit status): hit flag 1/0, sheet PhP, photoaffinity labeling screen;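 for MS labeling percentage, STAT5B: 0.17 µL of 100 mM DMSO fragment stock added to the protein sample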
Protocol: STAT5B protein in 7 µM concentration in pH 7.4 PBS buffer was pre-incubated with 0.17 µL PhP (in 100 mM DMSO solution) for 1 h at room temperature in dark. Irradiation was carried out at 4 °C for 10 min using 365 nm UV lamp.
as §3

SMILES | MS labeling percentage, CA [1] [%] | MS labeling percentage, BRD4 (BRD4-BD1) [%] | BRD4-BD1 (experimental hit status) (BRD4-BD1) | MS labeling percentage, Myo (myoglobin (Myo)) [%] | MS labeling percentage, Lyo (lysozyme (Lyo)) [%] | MS labeling percentage, KRas (KRas^G12D) [%] | KRAS-G12D (experimental hit status) (KRas^G12D) | MS labeling percentage, STAT5B+photocat (STAT5B-NTD [2]) [%] | MS labeling percentage, STAT5B (STAT5B-NTD [3]) [%] | STAT5B-NTD (experimental hit status) (STAT5B-NTD [3])
CC1(CCC(=O)Nc2sc3c(c2C(N)=O)CCC(C(C)(C)C)C3)N=N1 (centres unmarked) [PhP049, CC(C)(C)C(CC1)Cc(c12)sc(c2C(=O)N)NC(=O)CCC3(C)N=N3] | 0.2 | 0 | 0 | 0.1 | 0 | 0.1 | 0 | 2 | 1 | 0
CN(C)Cc1nc2ccc(NC(=O)CCC3(C)N=N3)cc2o1 [PhP055, CN(C)Cc(n1)oc(c12)cc(cc2)NC(=O)CCC3(C)N=N3] | 0 | 0.7 | 0 | 0 | 0 | 0.3 | 0 | 0.8 | 0 | 0
CC1(CCC(=O)NCCCN2CCN(C(=O)OC(C)(C)C)CC2)N=N1 [PhP056, CC(C)(C)OC(=O)N1CCN(CC1)CCCNC(=O)CCC2(C)N=N2] | 0.3 | 0.2 | 0 | 0 | 0 | 0 | 0 | 1.2 | 0 | 0

More lines, main results first:

MS labeling percentage, CA [1] [%] | SMILES | MS labeling percentage, BRD4 (BRD4-BD1) [%] | BRD4-BD1 (experimental hit status) (BRD4-BD1) | MS labeling percentage, Myo (myoglobin (Myo)) [%] | MS labeling percentage, Lyo (lysozyme (Lyo)) [%] | MS labeling percentage, KRas (KRas^G12D) [%] | KRAS-G12D (experimental hit status) (KRas^G12D) | MS labeling percentage, STAT5B+photocat (STAT5B-NTD [2]) [%] | MS labeling percentage, STAT5B (STAT5B-NTD [3]) [%] | STAT5B-NTD (experimental hit status) (STAT5B-NTD [3])
0.3 | CC1(CCC(=O)NCCCn2ccnc2)N=N1 [PhP050, N1=NC1(C)CCC(=O)NCCCn2ccnc2] | 0.4 | 0 | 0.2 | 0 | 0.6 | 0 | 0.4 | 1 | 0
1 | CC1(CCC(=O)NCCSCc2ccccc2)N=N1 [PhP051, N1=NC1(C)CCC(=O)NCCSCc2ccccc2] | 0.2 | 0 | 0.1 | 0 | 0 | 0 | 1 | 0 | 0
1.2 | CC1(CCC(=O)NCc2ccc(-c3cncnc3)cc2)N=N1 [PhP052, N1=NC1(C)CCC(=O)NCc2ccc(cc2)-c3cncnc3] | 1.5 | 0 | 1.3 | 0 | 1.3 | 0 | 11.4 | 1 | 0
0 | CC1(CCC(=O)Nc2ccc(N3CCCCC3)cc2C(N)=O)N=N1 [PhP054, N1=NC1(C)CCC(=O)Nc2ccc(cc2C(=O)N)N3CCCCC3] | 0.6 | 0 | 0 | 0 | 0 | 0 | 9.8 | 2.9 | 0
0.4 | CC1(CCC(=O)NCc2c(O)ccc3ccccc23)N=N1 [PhP057, N1=NC1(C)CCC(=O)NCc(c(O)cc2)c(c23)cccc3] | 1.6 | 0 | 0.7 | 2.2 | 1.1 | 0 | 3.4 | 0 | 0
